In paper PMC4492822 (EMBO Molecular Medicine, 2015):

How the values were obtained:
H1299 cells = assay: Immunoblotting of cell cycle, apoptosis, MAPK and DNA repair proteins; format: cell-based
Description: (§1) Cell lysate was prepared with TB buffer method. For immunoblotting, ~25 μg protein was loaded on 10% SDS–PAGE gels. […] The blots were developed with clarity Western ECL (Bio-Rad, Hercules, CA, USA) and imaged with G:BOX Chemi XR5 (Syngene, Frederick, MD, USA).

[1] = tested on: preclinical breast and sarcoma models; assay: Single agent activity in preclinical breast and sarcoma models; format: in vivo; conditions: authors' response to reviewers
Excerpt: EMBO Molecular Medicine Peer Review Process File - EMM-2014-04368 levels vary based on the datasets analyzed. In addition, as far as DDX3 protein levels are concerned, […]
making it difficult to interpret the gene expression datasets as an absolute unit to that of the protein […]
3) A more detailed description of expression in other normal tissues would help anticipate toxicities.
Response: It is difficult to ascertain if the levels of DDX3 in the normal cells will directly correlate to toxicities levels following RK-33 treatment. It is possible that normal cells are not dependent on DDX3 for its cellular biogenesis as compared to the cancer cells. This could be one of the reasons why there is no observable toxicity within our experimental setting. Also, as a first step to determine toxicity for a novel drug, it is essential to test the effect in small animals like mouse or rat. Based on these criteria, we observed no toxicity in mouse at higher levels than the therapeutic dose to kill […]
impart any visible side effects.
4) Legends for Figure 2 are mislabeled.
Response: We thank the reviewer for pointing this out. We have rectified this in the revised […]
5) What is the subsrate in the helicase assay. Have the authors explored RNA secondary (e.g. G-quadruplex or hairpin structures)? […]
10) Figure 7. Please add a quantification of cell death. […]

[2] = tested on: TCF4 activity in H1299 cells; assay: TCF reporter assay (TOP/FOP-FLASH); format: cell-based; conditions: 0, 1, 2, and 3 μM; wild-type and β-catenin-overexpressing cells
Description: Transcriptional activity of TCF4 was assayed using the dual luciferase assay (Promega, Madison, WI, USA) according to the manufacturer's instructions. Briefly, 1.5 × 10^4 A549 or H1299 cells were transfected with 500 ng of TOP-FLASH and control FOP-FLASH constructs along with 50 ng of phRL Renilla constructs as transfection controls as well as with 500 ng β-catenin constructs when indicated. Cells were cultured for 24 h and then lysed in passive lysis buffer. Luminescence was detected using a luminometer (Berthold Sirius, Oak Ridge, TN, USA). Relative TCF4 promoter activity was calculated by dividing firefly luminescence by Renilla luminescence, and then normalized TOP-FLASH was divided by normalized FOP-FLASH, which was finally normalized to vector or DMSO control cells. All experiments were repeated three times, and differences were assessed by the paired t-test.

A549 cells [3] = assay: Immunoblotting of cell cycle, apoptosis, MAPK and DNA repair proteins; format: cell-based, human
Description: as §1

H1299-DR-GFP cells = assay: Homologous recombination reporter assay; format: cell-based
Description: NHEJ was assessed by the functional reporter system H1299-EJ, provided by E Dikomey. […] When these sites are incised by I-SceI, the artificial start codon is removed creating a DSB. Repair of this DSB by NHEJ restores GFP expression, so that cells capable for NHEJ can be identified by their GFP fluorescence intensity (Kriegs et al, [2010]). H1299.EJ cells were plated in a 6-well plate (1 × 10^5 cell/well) and treated with 4–6 μM RK-33. The following day, cells were transfected (in duplicates) with 1–2 μg of pSceI or pEGFP construct using TransIT-LT1 (Mirus, Madison, WI, USA) in serum-free media (Opti-MEM, Invitrogen, Carlsbad, CA, USA). Media was replaced after 4–6 h with complete media. Subsequently, cells were harvested by trypsinization, washed in PBS, and resuspended in 0.5 ml PBS. NHEJ activity was measured on a FACScan I instrument and analyzed on FlowJo software. Recombination frequency was calculated as ((% pSceI − % negative control) / % pEGFP). H1299-DR-GFP cells, provided by RG Bristow, were used to measure homologous recombination similarly as described above (Chan et al, [2008]).

A549 cells [4] = assay: Cell cycle analysis by flow cytometry; format: cell-based, human; conditions: 0, 2, 4, and 6 μM, dose-dependent
Description: A549 and H1299 cells were plated at 1 × 10^5 cells per well of a 6-well plate. Cell cycle was carried out as previously described (Vesuna et al, [2012]). Briefly, cells were trypsinized 24 h after plating and fixed in 70% ethanol overnight at −20°C. Fixed cells were washed with PBS and resuspended in DNA-staining solution (5 μg/ml propidium iodide, 0.5 mg/ml RNase A) for 1 h at room temperature. Cell cycle acquisition was performed on a FACScan I or FACSCalibur instrument (BD Biosciences, San Jose, CA, USA). Independent experiments were repeated three times. Data were analyzed using FlowJo software (Tree Star Inc., Ashland, OR, USA).

[5] = 10 μM, especially evident 2 h after treatment

diimidazo[4,5-d:4′,5′-f]-[1,3]diazepine [RK-33]
DNA repair proteins ATR and XRCC4 (H1299 cells; 6 μM for 4 h, then 5 Gy): decrease of ATR but not XRCC4
phosphorylated ERK2 and ERK1 (H1299 cells; 7.5 μM or 10 μM, 24 h): reduction of phosphorylated ERK2 and ERK1
cyclin D1 protein (H1299 cells; [5]): substantial reduction of cyclin D1
single agent activity [1]: delayed tumor growth
TCF activity [2]: reduced TCF activity significantly
DNA repair proteins ATR and XRCC4 (A549 cells [3]; 6 μM for 4 h, then 5 Gy): decrease of ATR but not XRCC4
phosphorylated ERK2 and ERK1 (A549 cells [3]; 7.5 μM or 10 μM, 24 h): reduction of phosphorylated ERK2 and ERK1
caspase cleavage (A549 cells [3]; 10 μM): cleavage of caspases 7 and 9
cyclin D1 protein (A549 cells [3]; [5]): substantial reduction of cyclin D1
HR activity (H1299-DR-GFP cells): no changes in HR activity
cell cycle effect (A549 cells [4]): G1 arrest
